Entries after “also recorded” stand apart in the source; their conditions may differ.
What was measured:
healthy donor T cells = assay: IFNγ ELISA of healthy donor T cells stimulated with peptide loaded autologous DCs; type: cell-based, human; details: for IFNγ responses following stimulation with autologous DCs loaded with wild type peptide: in one of three normal donors tested; for IFNγ production from normal donor T cells: modified peptides P11-P16, six normal donors
Protocol: PBMCs were prepared from healthy donor buffy coats as described above. Monocytes were obtained from newly sourced buffy coats, or cells thawed at 10^6/ml in warm X-VIVO medium, 1% human AB serum and plated in 90 mm TC dishes. Plates were incubated at 37° C. for at least 4 hours and non adherent cells removed by gently washing with media or HBSS or CD14^+ cells were positively selected as described. The remaining T cell enriched cells were cryopreserved for use as effectors in later assays. The CD14^+ fraction/adherent cells were cultured in IL-4 (1000 IU/ml) and GM-CSF (800 U/ml) for 5 days to induce differentiation to a dendritic cell (DC) phenotype. On day 3 fresh IL-4 and GM-CSF were added. On day 5 TNFα (10 ng/ml), IL-6 (1000 U/ml) and IL-1β (10 ng/ml) all from R&D systems UK and PGE2 (1 μg/ml) (from Sigma, UK) were added to plates. On day 6 DCs were harvested from plates and washed with HBSS to remove residual cytokines before use in immunological experiments. Analysis of DC phenotype was carried out by flow cytometry.
IL-2 and IFNγ levels were determined with Duo set ELISA Development System (R&D Systems), according to the manufacturer's instructions. Supernatants were collected at various time points (days 3, 7, 10 and 14) in order to detect peak cytokine levels.
(§1) After 24 hours in maturation cytokines, DCs were incubated with peptide (50 μg/ml) for 4 hours. PBMCs or CD3^+ cells from healthy donors or patients with solid tumours were seeded into a 12-well plate, in X-VIVO 15 at a density of 2×10^6/ml. Peptide pulsed, monocyte derived DCs were washed and prepared at 2×10^5/ml. PBMC cultures received peptide pulsed DCs at a stimulator:effector ratio of […], or in the case of unstimulated controls, medium only. IL-7 was added to cultures at a final concentration of 10 U/ml on day 3. Cultures were restimulated by addition of peptide pulsed DCs on, day 7, and in some cases day 14, together with IL-7 and IL-2 (both at 10 U/ml). 200 μl of culture supernatants were collected at various intervals throughout the culture period and replaced with fresh medium. In the case of AML patient cultures, T2 cells were pulsed with peptide and used as stimulators in the same way as autologous DCs described above. Culture supernatants were analysed for IFNγ content by ELISA. After the 2-3 week culture period, stimulated effector cells were washed and analysed by pentamer staining, intracellular cytokine staining or ELISPOT assays.

HHD mice = assay: Mouse IFNγ-ELISpot after pDOM-epitope DNA vaccination
Protocol: HHD mice at 6 to 10 weeks of age were injected intramuscularly (i.m.) into both quadriceps with a total of 50 μg DNA in saline solution on day 0. Unless stated otherwise mice were boosted with the same DNA vaccine delivered with in vivo electroporation on day 28 as previously described^5.
Vaccine-specific IFNγ secretion by lymphocytes from individual mice was assessed ex vivo (BD ELISpot Set, BD PharMingen, San Diego, Calif.) on day 14 or 36, as described previously with some modifications^11. Briefly, viable lymphocytes were selected from splenocyte preparations by density centrifugation. […] Data are expressed as the frequency of spot-forming cells (SFCs) per million lymphocytes. For analysis of peptide-specific T-cell sensitivity, splenic lymphocytes from immunized mice were incubated with a range of PASD1 peptide concentrations and the frequency of specific cells assessed by ELISpot analysis as described. The number of SFC/million cells at the peptide concentration inducing the greatest response was assigned a value of 100%. For each peptide concentration tested the % maximal response was then calculated by the formula: (experimental SFCs per million cells/maximal SFCs per million cells)×100% for each individual animal.

healthy donor CD3+ cells = assay: Intracellular IFNγ staining of peptide stimulated CD3+ cultures; type: cell-based, human; details: after three stimulations, CD4 or CD8 co-staining
Protocol: For detection of IFNγ, Brefeldin A was added to T cells 12 hours prior to intracellular staining, to a final concentration of […]. Effector cells were washed with PBS and stained with CD8-PE or CD4-PE antibody for 30 minutes at room temperature. Stained cells were then washed twice with HBSS, and resuspended in the residual volume. 100 μl of fixation solution (Caltag Laboratories, UK) was added to each tube and samples incubated for 15 minutes at room temperature. Cells were then washed with cold HBSS, 1% FBS 0.1% sodium azide and resuspended in the residual volume. 100 μl of permeabilisation medium (Caltag Laboratories) and 5 μl of IFNγ-FITC was added to each tube, and incubated for 20 mins at room temperature. Finally, cells were washed and resuspended in 300-500 μl HBSS ready for FACS analysis. All antibodies and isotype controls were purchased from (Becton Dickinson, Oxford, UK) except HLA-A2 (from Serotec).
After 24 hours in maturation cytokines, DCs were incubated with peptide (50 μg/ml) for 4 hours. PBMCs or CD3^+ cells from healthy donors or patients with solid tumours were seeded into a 12-well plate, in X-VIVO 15 at a density of 2×10^6/ml. […] Culture supernatants were analysed for IFNγ content by ELISA. After the 2-3 week culture period, stimulated effector cells were washed and analysed by pentamer staining, intracellular cytokine staining or ELISPOT assays.

[1] = system: healthy donor CD8+ T cells; assay: Pentamer staining, healthy donor CD3+ cells stimulated with peptide pulsed DCs; type: cell-based, human; details: two of four normal donors, after four stimulations
Protocol: (§2) Assessment of peptide specific T cells was carried out by staining 10^6 effector cells with 10 μl of PE labeled, HLA-A*0201 pentamers (custom made by Proimmune) for 10 minutes, at room temperature, in the dark. Cells were then washed and co-stained with CD8-FITC for 20 minutes at room temperature. The lymphocyte gate was selected according to FSSCH/SSCH and 50,000 events acquired. Staining with control pentamers was carried out for each sample.
as §1, with “200 μl of culture supernatants were collected at various intervals throughout the culture period and replaced with fresh medium. In the case of AML patient cultures, T2 cells were pulsed with peptide and used as stimulators in the same way as autologous DCs described above.” left out, “assays. […]” for “assays.”

AML patient CD8+ T cells = assay: Pentamer staining, AML patient CD3+ T cells stimulated with peptide loaded T2 cells; type: cell-based, human; details: for P14 pentamer positive cells of the CD8+ cells: after P14 peptide stimulation; for Pentamer positive cells, frequency of the CD8+ cells: after two rounds of ex vivo stimulation
Protocol: as §2, §1
(§3) The T2 line was first examined for immune stimulatory molecules by FACS analysis. […] T2 cells were cultured in serum free conditions to reduce the non-human antigens present in the FCS. T2 cells were incubated with peptide for 4 hours, washed and irradiated and seeded in 96 well plates. Purified T cells (Miltenyi) from patients were added and IFNγ secretion or the expansion of CD8^+ epitope specific T cells measured using pentamers.
Prior to each restimulation, cells were resuspended and aliquots taken for pentamer staining.

[2] = system: solid tumour patient CD8+ T cells; assay: Pentamer staining, solid tumour patient CD3+ T cells stimulated with peptide loaded autologous DCs; type: cell-based, human; details: for Pentamer positive cells, frequency of CD8+ cells: absence of peptide stimulation; for Pentamer positive cells, frequency of the CD8+ population: after peptide stimulation (P15: three rounds)
Protocol: as §2, §1
There have been no reports of PASD1 expression in primary head and neck, prostate or colon cancer primary cells to date, but the head and neck cancer cell line Hn5^19, the lung cancer line H1299^19 and the colon cancer cell line SW480^24 are PASD1 positive. This raises the possibility that some solid cancer patients may be able to raise a response to the PASD1 peptides. Cells used in these experiments were isolated from leukophoresis samples taken several months after the cessation of treatment. Negatively purified CD3^+ T cells were stimulated with autologous monocyte derived DCs as described previously. Pentamer analysis was carried out after each stimulation.

patient T cells = assay: IFNγ secretion by patient T cells following in vitro peptide stimulation; type: cell-based, human; details: for Specific IFNγ secretion by ELISpot: colon cancer patient T cells stimulated with peptide
Protocol: FIG. 4. IFNγ secretion by patient T cells following in vitro stimulations. (A) IFNγ levels in peptide stimulated cultures from AML patients (same as shown in FIGS. 3 B and E) as measured by ELISpot assays. […] Graphs show IFNγ levels at day 10 (y-axis).
as §1, §3

patient CD8+ T cells = assay: pMHC tetramer array with unstimulated patient CD8+ T cells; type: cell-based, human
Protocol: FIG. 11: pMHC arrays. pMHC molecules were folded into tetramers using either streptavidin alone or AlexaFluor 532 (Molecular Probes) conjugated to streptavidin. Tetramers were spotted onto hydrogel slides using a contact deposition-type printer (Genetix), at a concentration of 0.5 mg/ml in 2% glycerol. Printed arrays were immobilised for 48 hours and stored at 4° C. until use. (FIG. 11 i) CD8+ T cells were negatively isolated from normal donor buffy coats obtained from National Blood Service UK or patient samples from the Department of Haematology, Southampton General Hospital following informed consent using EasySep isolation kits. […] Excess culture medium was removed before slides were analysed on the ProScanArray (PerkinElmer). […] Negatively isolated CD8+ T cells were labelled with CD8-FITC (FL1-H) and pMHC-SAPE (FL2-H) and analysed by flow cytometry using the FACScalibur™. […]
FIG. 12: Analysis of patient samples. […] Positives were only scored where at least 3 of 9 spots had T cells stuck to them and this occurred in both sets of spots in independent locations on the array. […]
In short, pMHC molecules were folded into tetramers using streptavidin alone or streptavidin conjugated to AlexaFluor 532 (Molecular Probes). […] Excess culture medium was removed before slides were analysed on the ProScanArray (PerkinElmer). […]

peptide loaded targets = type: cell-based
[3] = prostate cancer patient, up to four stimulations

| Substance | IFNγ responses following stimulation with autologous DCs loaded with wild type peptide (healthy donor T cells) | Secretion of IFNγ in cultures of CD4+ depleted effector cells (healthy donor T cells) | IFNγ production from normal donor T cells (healthy donor T cells) | Pentamer positive T cells [1] | Pentamer positive cells, frequency of the CD8+ cells (AML patient CD8+ T cells; AML patients) | Pentamer positive cells, frequency of CD8+ cells ([2]; head and neck patient) | Pentamer positive cells, frequency of the CD8+ population ([2]; head and neck patient) | Pentamer positive cells [2, 3] | Specific IFNγ secretion by ELISpot (patient T cells) | Killing of peptide loaded targets (CTL assay) (peptide loaded targets) | also measured |
| --- | --- | --- | --- | --- | --- | --- | --- | --- | --- | --- | --- |
| P4: wild type PASD1 nonamer, SEQ ID NO. 1 (LQNPRDVSV; listed as Homo sapiens) | generated some IFNγ responses | – | – | – | – | – | – | – | – | – | – |
| P8: wild type PASD1 peptide, SEQ ID NO. 9, PASD1 691-699 (RLWQELSDS; listed as Homo sapiens) | generated some IFNγ responses | – | – | – | – | – | – | – | – | – | IFNγ secretion (ELISpot) against the peptide of the immunisation (HHD mice; HHD mice, prime only, 14 days later): does not |
| P9: wild type PASD1 nonamer, SEQ ID NO. 11 (KLQERKKWQ; listed as Homo sapiens) | generated some IFNγ responses | – | – | – | – | – | – | – | – | – | – |
| P14: modified PASD1 peptide, SEQ ID NO 21, derivative of wild type peptide P8 (RLWQELSDI; Synthetic sequence amino acid sequence p14) | – | almost completely abolished | highest levels | small population | 0.02% | 0.02% | not expanded | No pentamer positive cells were detected | detectable | – | Phenotype of the IFNγ secreting cells (healthy donor CD3+ cells): IFNγ secreting cells were CD8+; Pentamer positive cells (AML patient CD8+ T cells; AML Patient 3 (remission) and Patient 4 (non remission), after three stimulations): no pentamer positive cells were detected; P14 pentamer positive cells of the CD8+ cells (AML patient CD8+ T cells; AML Patient I): 0.5%; P14 pentamer positive cells of the CD8+ cells (AML patient CD8+ T cells; AML Patient II): 0.09%; Pentamer positive cells, frequency of the CD8+ T cells (AML patient CD8+ T cells; AML patients, absence of peptide stimulation): not detectable above background levels; also recorded: undetectable; P14 pentamer positive cells, frequency of the CD8+ T cell population ([2]; colon cancer patient, fourth stimulation): 13.6%; P14 pentamer positive cells, frequency of CD8+ cells ([2]; colon cancer patient, stimulation with DCs alone, corrected for control pentamer): 0.09%; P14 pentamer positive cells, frequency of CD8+ T cells ([2]; colon cancer patient, three rounds of P14 peptide stimulation): 0.11%; IFNγ secretion by expanded P14-specific T cell populations (patient T cells; AML Patient I and II): IFNγ was secreted; HLA-A2 positive ALL and CML patients with P14-specific T cells (patient CD8+ T cells; 1 ALL and 1 CML HLA-A2 positive patient): neither; HLA-A2 positive AML patients with P14 specific T cells on the pMHC array (patient CD8+ T cells; at presentation, no prior ex vivo stimulation): two of four; IFNγ secretion (ELISpot) against the peptide of the immunisation (HHD mice; mouse, in vivo): leads to an IFNγ response |
| P15: PASD1 peptide analogue with a single amino acid change, PASD1 587-595 (LINPRDVSV) | – | almost completely abolished | highest levels | small population | 0.02% | same low frequency | 0.06% | No pentamer positive cells were detected | not | did not occur | Pentamer positive cells ([2]; head and neck patient, fourth stimulation): did not expand this further |
| P16: PASD1 peptide analogue with a single amino acid change, PASD1 587-595 (LVNPRDVSV) | – | almost completely abolished | highest levels | – | – | – | – | – | – | did not occur | – |

— US20110212116A1, “IMMUNOGENIC PEPTIDES AND USES THEREOF” (Cancer Research Technology Limited, priority 2008, published 2011)
